How the values were obtained:
Type in all cases: cell-based
SMARCB1 protein levels = assay: SMARCB1 (INI1) western blot in lymphoma cells; settings: single agent treatment
From the text: Glucocorticoid bound GR molecules move to the nucleus and can act as either transcriptional activator or repressor, depending on the cellular environment. […] Accessibility to GR binding sites can further be enhanced by ATP-dependent chromatin remodeling, and the SWI/SNF complex plays a key role in this activity. Not wishing to be bound by a particular theory or a specific mechanism of action, it is conceivable that aberrant chromatin repression, induced by EZH2 mediated hypertrimethylation of H3K27, can block some of the otherwise accessible GR binding sites, interfering with normal GR mediated gene induction or repression.

RL cells = assay: RT2 Glucocorticoid signaling PCR array, RL (Table 4e, printed RI) cell line; settings: 4 days, Cpd44 1 uM, Pred 10-fold below 4-day IC50, vs DMSO, B2M-normalized
SU-DHL10 cells = assay: RT2 Glucocorticoid signaling PCR array, SU-DHL10 (SUDHL10) cell line (Table 4d); settings: SUDHL10, 4 days, vs DMSO
OCI-Ly19 cells = assay: RT2 Glucocorticoid signaling PCR array, OCI-LY19 (Table 4a, printed OCT) cell line; settings: vs DMSO
From the text: (§1) Expression levels of (A). Sestrin; (B). TNF and (C) GILZ normalized to DMSO controls for each cell line with the indicated single agent or combination.

SU-DHL4 cells = assay: RT2 Glucocorticoid signaling PCR array, SU-DHL4 (SUDHL4) cell line (Table 4f); settings: SUDHL4, 4 days, vs DMSO
From the text: as §1

SMILES: C[C@]12C=CC(=O)C=C1CC[C@@H]1[C@@H]2[C@@H](O)C[C@@]2(C)[C@H]1CC[C@]2(O)C(=O)CO [Prednisolone, prednisolone]
- SMARCB1 protein levels (SMARCB1 protein levels): no effect
- ΔΔCT (RL cells; ADARB1 mRNA): 0.413
- ΔΔCT (RL cells; AFF1 mRNA): −1.390
- ΔΔCT (RL cells; AK2 mRNA): 0.686
- ΔΔCT (RL cells; AMPD3 mRNA): −0.544
- ΔΔCT (RL cells; ANGPTL4 mRNA): 1.668
- ΔΔCT (RL cells; ANXA4 mRNA): 0.131
- ΔΔCT (RL cells; ARID68 mRNA): 0.833
- ΔΔCT (RL cells; ASPH mRNA): 0.771
- ΔΔCT (RL cells; BCL6 mRNA): 0.937
- ΔΔCT (RL cells; CEBPB mRNA): 2.638
- ΔΔCT (RL cells; CREB1 mRNA): 0.483
- ΔΔCT (RL cells; CREB3L4 mRNA): 0.129
- ΔΔCT (RL cells; DDIT4 mRNA): 1.431
- ΔΔCT (RL cells; DUSP1 mRNA): −0.153
- ΔΔCT (RL cells; EDN1 mRNA): 6.595
- ΔΔCT (RL cells; EHD3 mRNA): 0.055
- ΔΔCT (RL cells; FK8PS mRNA): −0.333
- ΔΔCT (RL cells; FOSL2 mRNA): 2.300
- ΔΔCT (RL cells; GDPD1 mRNA): 0.711
- ΔΔCT (RL cells; GLUL mRNA): 1.007
- ΔΔCT (RL cells; GOT1 mRNA): 1.467
- ΔΔCT (RL cells; H6PD mRNA): 0.935
- ΔΔCT (RL cells; HNRPLL mRNA): 0.789
- ΔΔCT (RL cells; IL1RN mRNA): −0.808
- ΔΔCT (RL cells; IL6R mRNA): 0.885
- ΔΔCT (RL cells; IL10 mRNA): −0.083
- ΔΔCT (RL cells; KLF13 mRNA): 0.346
- ΔΔCT (RL cells; LOX mRNA): −0.132
- ΔΔCT (RL cells; MT2A mRNA): 1.656
- ΔΔCT (RL cells; NFKBIA mRNA): 0.853
- ΔΔCT (RL cells; NR3C1 mRNA): 0.952
- ΔΔCT (RL cells; PDCD7 mRNA): 0.394
- ΔΔCT (RL cells; PDP1 mRNA): 0.742
- ΔΔCT (RL cells; PER1 mRNA): 2.230
- ΔΔCT (RL cells; PER2 mRNA): 0.250
- ΔΔCT (RL cells; PLEKHF1 mRNA): 1.075
- ΔΔCT (RL cells; POU2F2 mRNA): 0.797
- ΔΔCT (RL cells; RA5A3 mRNA): 1.543
- ΔΔCT (RL cells; RGS2 mRNA): 0.772
- ΔΔCT (RL cells; SGK1 mRNA): 0.848
- ΔΔCT (RL cells; SLC10A6 mRNA): −1.725
- ΔΔCT (RL cells; SNTA1 mRNA): 1.144
- ΔΔCT (RL cells; SPHK1 mRNA): 2.618
- ΔΔCT (RL cells; SPSB1 mRNA): 2.005
- ΔΔCT (RL cells; STAT5A mRNA): 0.789
- ΔΔCT (RL cells; STAT5B mRNA): 0.512
- ΔΔCT (RL cells; TBL1XR1 mRNA): 0.794
- ΔΔCT (RL cells; TNF mRNA): −0.598
- ΔΔCT (RL cells; TNFAIP3 mRNA): 1.561
- ΔΔCT (RL cells; TSC22D3 mRNA): −1.431
- ΔΔCT (RL cells; USP2 mRNA): −0.661
- ΔΔCT (RL cells; USPS4 mRNA): 0.491
- ΔΔCT (RL cells; VDR mRNA): 1.247
- ΔΔCT (RL cells; VLDLR mRNA): −1.862
- ΔΔCT (RL cells; ZFP36 mRNA): 0.925
- ΔΔCT (RL cells; ZNF281 mRNA): 0.371
- AFF1 ΔΔCT (SU-DHL10 cells): −0.106
- AMPD3 ΔΔCT (SU-DHL10 cells): −0.327
- ANGPTL4 ΔΔCT (SU-DHL10 cells): −0.105
- ANXA4 ΔΔCT (SU-DHL10 cells): −0.001
- ATF4 ΔΔCT (SU-DHL10 cells): 1.570
- BCL6 ΔΔCT (SU-DHL10 cells): 1.067
- CEBPB ΔΔCT (SU-DHL10 cells): 2.427
- CREB1 ΔΔCT (SU-DHL10 cells): 0.028
- CREB3L4 ΔΔCT (SU-DHL10 cells): 1.120
- CREB3 ΔΔCT (SU-DHL10 cells): −0.098
- CYB561 ΔΔCT (SU-DHL10 cells): 0.164
- DUSP1 ΔΔCT (SU-DHL10 cells): −0.719
- EHD3 ΔΔCT (SU-DHL10 cells): −0.272
- FK8PS ΔΔCT (SU-DHL10 cells): −1.599
- FOSL2 ΔΔCT (SU-DHL10 cells): −1.511
- GDPD1 ΔΔCT (SU-DHL10 cells): −0.938
- GOT1 ΔΔCT (SU-DHL10 cells): 0.781
- HNRPLL ΔΔCT (SU-DHL10 cells): 0.492
- KLF9 ΔΔCT (SU-DHL10 cells): −1.904
- KLF13 ΔΔCT (SU-DHL10 cells): −2.191
- MT2A ΔΔCT (SU-DHL10 cells): 1.837
- NFKBIA ΔΔCT (SU-DHL10 cells): 0.069
- PDCD7 ΔΔCT (SU-DHL10 cells): 0.428
- PDP1 ΔΔCT (SU-DHL10 cells): 0.512
- PER1 ΔΔCT (SU-DHL10 cells): −0.675
- PIK3R1 ΔΔCT (SU-DHL10 cells): −0.040
- PLEKHF1 ΔΔCT (SU-DHL10 cells): −0.326
- POU2F1 ΔΔCT (SU-DHL10 cells): −0.060
- POU2F2 ΔΔCT (SU-DHL10 cells): −2.104
- RA5A3 ΔΔCT (SU-DHL10 cells): 0.050
- RGS2 ΔΔCT (SU-DHL10 cells): 1.368
- RHOB ΔΔCT (SU-DHL10 cells): 0.157
- SESN1 ΔΔCT (SU-DHL10 cells): −3.413
- SGK1 ΔΔCT (SU-DHL10 cells): 0.975
- SLC10A6 ΔΔCT (SU-DHL10 cells): −1.545
- SLC19A2 ΔΔCT (SU-DHL10 cells): 1.693
- SLC22A5 ΔΔCT (SU-DHL10 cells): 1.923
- SNTA1 ΔΔCT (SU-DHL10 cells): −0.066
- SPSB1 ΔΔCT (SU-DHL10 cells): −0.629
- STAT5A ΔΔCT (SU-DHL10 cells): 0.381
- TBL1XR1 ΔΔCT (SU-DHL10 cells): 0.105
- TNFAIP3 ΔΔCT (SU-DHL10 cells): 0.950
- TSC22D3 ΔΔCT (SU-DHL10 cells): −1.509
- USP2 ΔΔCT (SU-DHL10 cells): −0.292
- USPS4 ΔΔCT (SU-DHL10 cells): 0.041
- VLDLR ΔΔCT (SU-DHL10 cells): 4.597
- ZFP36 ΔΔCT (SU-DHL10 cells): −0.420
- ZHX3 ΔΔCT (SU-DHL10 cells): 0.027
- ZNF281 ΔΔCT (SU-DHL10 cells): −0.465
- ΔΔCT, AFF1 (OCI-Ly19 cells; gene AFF1): −0.304
- ΔΔCT, AMPD3 (OCI-Ly19 cells; gene AMPD3): −0.109
- ΔΔCT, ANXA4 (OCI-Ly19 cells; gene ANXA4): 0.189
- ΔΔCT, CEBPA (OCI-Ly19 cells; gene CEBPA): 0.031
- ΔΔCT, CREB1 (OCI-Ly19 cells; gene CREB1): 0.060
- ΔΔCT, CREB3 (OCI-Ly19 cells; gene CREB3): −0.156
- ΔΔCT, GHRHR (OCI-Ly19 cells; gene GHRHR): −2.603
- ΔΔCT, GOT1 (OCI-Ly19 cells; gene GOT1): 0.094
- ΔΔCT, PER1 (OCI-Ly19 cells; gene PER1): 0.263
- ΔΔCT, RGS2 (OCI-Ly19 cells; gene RGS2): 0.390
- ΔΔCT, SPSB1 (OCI-Ly19 cells; gene SPSB1): 0.387
- ΔΔCT, TBL1XR1 (OCI-Ly19 cells; gene TBL1XR1): −0.234
- ΔΔCT, TNF (OCI-Ly19 cells; gene TNF): −0.773
- ΔΔCT, VLDLR (OCI-Ly19 cells; gene VLDLR): 0.081
- ΔΔCT, BCL6 (SU-DHL4 cells): −0.793
- ΔΔCT, CEBPB (SU-DHL4 cells): 0.528
- ΔΔCT, DDIT4 (SU-DHL4 cells): −1.931
- ΔΔCT, DUSP1 (SU-DHL4 cells): −1.093
- ΔΔCT, NFKBIA (SU-DHL4 cells): −0.710
- ΔΔCT, PDP1 (SU-DHL4 cells): −0.521
- ΔΔCT, POU2F2 (SU-DHL4 cells): −0.675
- ΔΔCT, RASA3 (SU-DHL4 cells): −0.723
- ΔΔCT, SPHK1 (SU-DHL4 cells): 0.331
- ΔΔCT, STAT5A (SU-DHL4 cells): −0.389
- ΔΔCT, TNF (SU-DHL4 cells): −2.845
- ΔΔCT, VDR (SU-DHL4 cells): −0.996
- ΔΔCT, VLDLR (SU-DHL4 cells): 1.191
- ΔΔCT, ZNF281 (SU-DHL4 cells): −0.739
